In data set [1] the test system is 54 clinically isolated C. difficile strains. Description: MIC by agar dilution against 54 clinically isolated strains. It counts as cell-based, Clostridioides difficile. The settings on record: Clostridioides difficile, 54 clinically isolated C. difficile strains; for MIC50: read-out: MIC50. Here is the method: (§1) MICs obtained using the agar dilution method were determined visually as described for the CLSI method ([41], [42]). MICs obtained using the broth dilution method were determined visually based on the CLSI method except for using Gifu anaerobic medium (GAM) broth instead of supplemented Brucella broth ([41], [42]).
For orientation: In agar dilution, organisms are placed on agar that contains the substance at set levels.

The subject of data set [2] is hypervirulent and nonhypervirulent strains of C. difficile (62 strains). Description: MIC distribution against 20 hypervirulent and 42 nonhypervirulent strains. It is filed as cell-based, Clostridioides difficile.
Data set [3] deals with 10 clinical isolates of C. difficile. Description: MIC (broth dilution) and MBC testing, 10 clinical isolates. It counts as cell-based, Clostridioides difficile. The settings on record: for MBC Range: >99.9% reduction within 48 h; for MIC90 / MBC: Clostridioides difficile; for MBC: read-out: MBC90. The method, then:
In this test, MIC testing was performed using the broth dilution method as recommended in the CLSI ([41]). After the MICs were determined, 10 μl of the bacterial suspension from the MIC test tube was inoculated onto agar plates and incubated at 37°C. The bacterial colonies were then counted and bacterial numbers were calculated. The MBC was considered to be the lowest concentration of the antibiotics that prevented growth and reduced the inoculum by >99.9% within 48 h, irrespective of counts of survivors at higher antibiotic concentrations.
(Dilution methods test growth across graded concentrations, often in twofold steps.)

For data set [4], the system named is C. difficile ATCC 700057. Description: MIC by broth dilution (GAM broth). It counts as cell-based, Clostridioides difficile. Here is the method: as §1
Data set [5] deals with C. difficile ATCC 700057. Description: Killing kinetics (time-kill curves). It counts as cell-based, Clostridioides difficile. The conditions noted are these: time-kill, up to 48 h. Here is the method: The test tubes were incubated for 48 h. The CFU/ml values of the bacterial suspensions were calculated at 0, 2, 4, 6, 24, and 48 h by culturing 0.1-ml samples of serial 10-fold dilutions on GAM agar plates at 37°C under anaerobic conditions and then counting the number of growing colonies. The CFU/ml value at each time point is from one sample of datum.

Data set [6] relates to C. difficile ATCC 700057. Put plainly: MIC by agar dilution (CLSI) against quality control strain. It is filed as cell-based, Clostridioides difficile. The method, then:
as §1

Data set [7] relates to C. difficile ATCC 700057. It is filed as cell-based, Clostridioides difficile.
For data set [8], the system named is C. difficile ATCC 700057. Description: Mutant prevention concentration. The settings on record: approximately 10^10 CFU, 3 days. It is filed as cell-based, Clostridioides difficile. The method, then:
The mutant prevention concentration was measured by plating approximately 10^10 CFU of C. difficile ATCC 700057 onto a GAM agar plate containing the test agent. Inoculated plates were incubated for 3 days, and the MIC for each antibiotic that prevented the growth of colonies was determined using the agar dilution method as described by the CLSI ([41]). The MIC values of grown colonies were compared to determine which bacteria were resistant. The MPC was defined as the lowest concentration that prevented the growth of resistant bacteria.

Data set [9] relates to C. difficile ATCC 700057. Put plainly: Postantibiotic effect (PAE). The conditions noted are these: for Postantibiotic effect: 1 h exposure. It counts as cell-based, Clostridioides difficile. The method, then: C. difficile ATCC 700057 was cultured in GAM agar and adjusted in GAM broth to approximately 10^6 CFU/ml. The bacterial suspensions were preincubated at 37°C for 1 h. […] After preincubation, test and reference solutions were added to each bacterial suspension in a test tube, and the suspensions were cultured for 1 h. After exposure to the test compounds, bacterial suspensions were washed with GAM broth and cultured for 6 h. […] The PAE was defined according to Craig and Gudmundsson as PAE = T − C, where T is the time required for the viable counts of the exposed bacteria to increase by 1 log10 above the counts observed immediately after washing, and C is the corresponding time for the antibiotic unexposed controls ([44]).

In data set [10] the test system is C. difficile ATCC 43255. Put plainly: In vivo hamster model of C. difficile infection. Further details: species or system golden Syrian hamsters. The method, then:
C. difficile ATCC 43255 was cultured on GAM agar, and a bacterial suspension was prepared in saline ([26]). […] Hamsters were infected using oral gavage with 0.5 ml of suspension containing approximately 10^6 CFU of C. difficile (day −1). The next day, the animals were administered clindamycin phosphate (0.2 mg/ml in water) by oral gavage at a dose of 5 ml/kg of body weight, for a final dose of 1 mg/kg (day 0). The animals were allocated to the test groups using a stratified randomization method based on the body weight of each infected animal. The test compounds were administered by oral gavage once daily for 5 days (OPS-2071, 0.008 to 1 mg/kg; fidaxomicin, 0.04 mg/kg to 5 mg/kg; vancomycin, 0.04 to 5 mg/kg [5-fold dilution]). Infected control animals were administered 5% (wt/vol) gum arabic solution by oral gavage. […] The cecal contents of dead animals were tested for toxin A and toxin B using C.Diff Quik Chek Complete (Abbott Diagnostics Medical Co., Ltd., Tokyo, Japan) to confirm that the death of the animal was due to CDI.
The statistical significance of OPS-2071, fidaxomicin, and vancomycin treatment was analyzed at all doses against vehicle. Survival curves were estimated for each group using the Kaplan-Meier method. Differences in survival homogeneity in each group were evaluated with a log-rank test with Dunnett-type (two-sided) comparison.

The test system of data set [11] is C. difficile ATCC 43255. Description: MIC against the infection strain. It is filed as cell-based, Clostridioides difficile.
Data set [12] relates to C. difficile ATCC 700057. Description: Effect of pH on MIC (agar dilution). It counts as cell-based, Clostridioides difficile. The conditions noted are these: Clostridioides difficile.
For data set [13] the following is noted: cited from earlier work.
In data set [14] the test system is C. difficile ATCC 43255. The arrangement: method as in PMID 22869573. The settings on record: cited from earlier work.
[15] abbreviates: Clostridioides difficile, hypervirulent strains (n = 20).
Where [16] appears, read: Clostridioides difficile, nonhypervirulent strains (n = 42).
[17] abbreviates: nonhypervirulent strains (n = 42).
The mark [18] stands for this setting: 10 clinical isolates, broth dilution.
[19] abbreviates: Clostridioides difficile, ATCC700057, broth dilution, retested for the time-kill assay, read-out: MIC.

≈ marks a conversion by molar mass, not a printed value. Where two headings read alike, the source gives them in different places. A value given as a limit tells only on which side of the number the result lay.

The source of these data is PMC8097418, “In Vitro and In Vivo Antibacterial Activities of a Novel Quinolone Compound, OPS-2071, against Clostridioides difficile” (Antimicrobial Agents and Chemotherapy, 2021).

The term MIC90 denotes the lowest concentration that inhibits either 90% of growth or 90% of the strains tested, depending on the study. By MIC50 is commonly meant an inhibitory concentration at the 50% level, which refers to growth in some studies and to a panel of isolates in others. Usually MIC stands for the smallest concentration in the dilution series that meets the test's criterion for growth inhibition. With `Cc1ncc([N+](=O)[O-])n1CCO` [Metronidazole], the MIC90 in data set [1] stood at 4 µg/mL (≈ 23.4 µM); in data set [2] (setting [15]), 1 µg/mL (≈ 5.84 µM); in [2] (setting [16]) it was 0.5 µg/mL (≈ 2.92 µM); in [3] (10 clinical isolates, broth dilution, read-out: MIC90), 4 µg/mL (≈ 23.4 µM). The MIC50 in data set [1] is 2 µg/mL (≈ 11.7 µM); in data set [2] (setting [15]), 0.5 µg/mL (≈ 2.92 µM); in data set [2] (setting [16]) it was 0.25 µg/mL (≈ 1.46 µM). The “Cumulative percentage of strains” value in [2] (Non-hyp (n = 42), MIC […] μg/ml) stood at 100%. Moreover, the values for the MIC range in data set [2] (hypervirulent strains (n = 20)), in data set [2] (setting [17]) and in data set [3] (setting [18]) were 0.25 to 16 µg/mL, 0.25 to 1 µg/mL and 1 to 4 µg/mL, respectively. Moreover, the “MBC Range” value in data set [3] (10 clinical isolates) is 1 to 4 µg/mL. Also, the MBC in [3] (10 clinical isolates) amounted to 4 µg/mL (≈ 23.4 µM). In addition, the MIC in the data set with C. difficile ATCC 700057 [4] (setting [19]) worked out at 0.5 µg/mL (≈ 2.92 µM). In addition, the “concentration needed for an undetectable level to be reached” value with C. difficile ATCC 700057 [5] is recorded as “over 2 fold MIC”.

For `CN[C@H](CC(C)C)C(=O)N[C@H]1C(=O)N[C@@H](CC(N)=O)C(=O)N[C@H]2C(=O)N[C@H]3C(=O)N[C@H](C(=O)N[C@H](C(=O)O)c4cc(O)cc(O)c4-c4cc3ccc4O)[C@H](O)c3ccc(c(Cl)c3)Oc3cc2cc(c3O[C@@H]2O[C@H](CO)[C@@H](O)[C@H](O)[C@H]2O[C@H]2C[C@](C)(N)[C@H](O)[C@H](C)O2)Oc2ccc(cc2Cl)[C@H]1O` [Vancomycin], the MIC90 in data set [1] worked out at 4 µg/mL (≈ 2.76 µM); in [2] (Clostridioides difficile, hypervirulent strains (n = 20), read-out: MIC90) it was 1 µg/mL (≈ 0.69 µM); in [2] (Clostridioides difficile, nonhypervirulent strains (n = 42), read-out: MIC90), 2 µg/mL (≈ 1.38 µM); in [3] it was 4 µg/mL (≈ 2.76 µM). Further, the MIC50 was 2 µg/mL (≈ 1.38 µM) in data set [1]; 1 µg/mL (≈ 0.69 µM) in [2] (Clostridioides difficile, hypervirulent strains (n = 20), read-out: MIC50); 1 µg/mL (≈ 0.69 µM) in [2] (setting [17]). Besides, the MIC range in data set [2] (hypervirulent strains (n = 20)) fell in the range of 1 to 2 µg/mL; in [2] (setting [17]), 0.5 to 4 µg/mL; in [3] (setting [18]), 2 to 4 µg/mL. Also, the “MBC Range” value in data set [3] (10 clinical isolates) fell in the range of 4 to 8 µg/mL. Further, the MBC in [3] worked out at 8 µg/mL (≈ 5.52 µM). Besides, the MIC with C. difficile ATCC 700057 [6] (Clostridioides difficile, ATCC700057, quality control strain ATCC 700057, CLSI method, read-out: MIC) is 2 µg/mL (≈ 1.38 µM); against C. difficile ATCC 700057 [6] (agar dilution, determined for the spontaneous resistance assay) it was 2 µg/mL (≈ 1.38 µM); in the data set with C. difficile ATCC 700057 [4] (setting [19]) it was 4 µg/mL (≈ 2.76 µM); with C. difficile ATCC 700057 [4] (broth method, determined for the PAE assay), 4 µg/mL (≈ 2.76 µM); in the data set on C. difficile ATCC 43255 [11], 2 µg/mL (≈ 1.38 µM); against C. difficile ATCC 700057 [12] (ATCC700057, pH 6), 2 µg/mL (≈ 1.38 µM). Further, the MIC in the data set on C. difficile ATCC 700057 [12] (ATCC700057, pH 7) was 2 µg/mL (≈ 1.38 µM); against C. difficile ATCC 700057 [12] (ATCC700057, pH 8) it was 2 µg/mL (≈ 1.38 µM). Also, the “concentration needed for an undetectable level to be reached” value in the data set with C. difficile ATCC 700057 [5] is listed as “over 2 fold MIC”. The “Frequency of spontaneous resistance” value with C. difficile ATCC 700057 [7] (4× MIC), with C. difficile ATCC 700057 [7] (16× MIC) and with C. difficile ATCC 700057 [7] (64× MIC) was <9.17 × 10^–9 throughout. Also, the “mutant prevention concentration (MPC)” value in the data set with C. difficile ATCC 700057 [8] is 8 µg/mL. In the data set with C. difficile ATCC 700057 [9] (4- and 8-fold the MIC), the “PAEs at 4- and 8-fold the MIC” value lay in the range of 1.03 to 1.25 h. Also, the figures for the Postantibiotic effect in the data set on C. difficile ATCC 700057 [9] (4× MIC) and in the data set on C. difficile ATCC 700057 [9] (8× MIC) were 1.03 h and 1.25 h, respectively. Besides, the “50% effective dose (ED50)” value in the data set on C. difficile ATCC 43255 [10] (survival on day 20, oral once daily for 5 days, probit method) came out at 1.22 mg/kg/day. Besides, the “dosages with significant efficacy compared with vehicle control” value in the data set on C. difficile ATCC 43255 [10] (survival, log-rank test) is listed as at least 1 mg/kg. In addition, the oral bioavailability in data set [13] is listed as under 10%.

For the compound `CCC[C@@H]1C[C@@H](C(=O)N[C@@H]([C@H]2O[C@H](SC)[C@H](O)[C@@H](O)[C@H]2O)[C@H](C)Cl)N(C)C1` [clindamycin], the MIC in the data set on C. difficile ATCC 43255 [14] is 8 µg/mL (≈ 18.8 µM).
